Columns and labels:
Assay type in all cases: biochemical
[1] = target: T1, recombinant human 17β-HSD1 (Homo sapiens, UniProt P14061); test: Inhibition of recombinant human 17β-HSD1; details: inhibitor 100 nM; 30 nM estrone, 1 mM NADPH, 30 min RT
T1 construct: made in house; host or cells: Sd9 (Sf9) insect cells, baculovirus (Bac to Bac Expression System)
T1 sequence (P14061 1-328): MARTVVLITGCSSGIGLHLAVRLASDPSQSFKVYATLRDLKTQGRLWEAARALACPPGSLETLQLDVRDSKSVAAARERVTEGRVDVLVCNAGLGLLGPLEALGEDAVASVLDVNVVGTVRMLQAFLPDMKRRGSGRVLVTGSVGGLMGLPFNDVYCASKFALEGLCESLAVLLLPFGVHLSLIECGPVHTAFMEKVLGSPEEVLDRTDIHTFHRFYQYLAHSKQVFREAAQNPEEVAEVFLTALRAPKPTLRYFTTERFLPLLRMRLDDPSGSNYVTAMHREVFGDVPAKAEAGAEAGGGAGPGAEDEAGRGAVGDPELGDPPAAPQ
Experimental: 17β-HSD1 production and isolation: Recombinant baculovirus was generated by the “Bac to Bac Expression System” (Invitrogen). Recombinant bacmid was transfected to Sd9 insect cells using “Cellfectin Reagent” (Invitrogen). 60 h later cells were harvested; the microsomal fraction was isolated as described by Puranen, T. J., Poutanen, M. H., Peltoketo, H. E., Vihko, P. T. and Vihko, R. K. (1994) Site-directed mutagenesis of the putative active site of human 17 β-hydroxysteroid dehydrogenase type 1. Biochem. J. 304: 289-293. Aliquots were stored frozen until determination of enzymatic activity.
Assay—Inhibition of recombinant human 17β-HSD1: Recombinant protein (1 μg/ml) was incubated in 20 mM KH2PO4 pH 7.4 with 30 nM estrone (including 800 000 cpm/ml of ^3H-estrone) and 1 mM NADPH for 30 min at RT, in the presence of the potential inhibitor at concentrations 1 μM or 0.1 μM. Inhibitor stock solutions were prepared in DMSO. Final concentration of DMSO was adjusted to 1% in all samples. The enzyme reaction was stopped by addition of 10% trichloroacetic acid (final concentration). Samples were centrifuged in a microtiter plate at 4000 rpm for 10 min. Supernatants were applied to reverse phase HPLC on a Waters Symmetry C18 column, equipped with a Waters Sentry Guard column. Isocratic HPLC runs were performed at RT at a flow rate of 1 ml/min in acetonitrile:water 48:52 as running solvent. Radioactivity was monitored in the eluate by a Scintillation Analyzer. Total radioactivity for estrone and estradiol were determined in each sample and percent conversion of estrone to estradiol was calculated according to the following formula:
(§1) [formula] Percent inhibition was calculated flowingly: % inhibition=100−% conversion

[2] = target: T2, recombinant human 17β-HSD2 (Homo sapiens, UniProt P37059); test: Inhibition of recombinant human 17β-HSD2; details: inhibitor 1 μM; 50 nM estradiol, 1 mM NADH, 30 min RT
T2 construct: made in house; host or cells: Sd9 (Sf9) insect cells, baculovirus (Bac to Bac Expression System)
T2 sequence (P37059 1-387): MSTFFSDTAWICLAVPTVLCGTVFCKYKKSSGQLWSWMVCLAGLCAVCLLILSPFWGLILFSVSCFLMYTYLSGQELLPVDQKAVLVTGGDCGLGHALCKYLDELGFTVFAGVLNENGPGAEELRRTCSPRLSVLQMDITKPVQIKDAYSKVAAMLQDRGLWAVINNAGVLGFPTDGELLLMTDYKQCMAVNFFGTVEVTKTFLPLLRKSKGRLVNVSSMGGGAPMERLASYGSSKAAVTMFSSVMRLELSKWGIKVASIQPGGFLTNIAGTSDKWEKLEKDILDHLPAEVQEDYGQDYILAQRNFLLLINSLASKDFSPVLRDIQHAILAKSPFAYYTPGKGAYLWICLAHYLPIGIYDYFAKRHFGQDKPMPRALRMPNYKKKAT
Experimental: 17β-HSD2 production and isolation: Similarly to 17β-HSD1 the Recombinant baculovirus was generated by the “Bac to Bac Expression System” (Invitrogen). Recombinant bacmid was transfected to Sd9 insect cells using “Cellfectin Reagent” (Invitrogen). 60 h later cells were harvested and supernatant were fractionated by the following protocol: • cells were dissolved into 40 ml of A-buffer (40 mM TRIS, pH 8.0, 20% glycerol, 20 μM NAD, 0.4 mM PMSF, 150 mM NaCl, 0.5% dodecyl-β-maltoside+protease inhibitor cocktail) • cells were sonicated • lysate was incubated on ice for 15 min • lysate was centrifuged 5000 rpm 15 min, +4° C. • centrifugation of the supernatant 180 000 g 30 min, +4° C. • pellet was dissolved into 8 ml of A-buffer • not resuspended material was removed by centrifugation 5000 rpm min, +4° C. • the clear supernatant was divided into 100 μl aliquots and were stored frozen until determination of enzymatic activity.
The amount of 17β-HSD2 was analysed by immunoblotting and total protein concentration of each extract batch was determined.
Assay—Inhibition of recombinant human 17β-HSD2: Recombinant protein (4 μg/ml) was incubated in 20 mM KH2PO4 pH 8.5 with 50 nM estradiol (including 800 000 cpm/ml of ^3H-estradiol) and 1 mM NADH for 30 min at RT, in the presence of the potential inhibitor at concentrations 1 μM or 0.1 μM. Inhibitor stock solutions were prepared in DMSO. Final concentration of DMSO was adjusted to 1% in all samples. The enzyme reaction was stopped by addition of 10% trichloroacetic acid (final concentration). Samples were centrifuged in a microtiter plate at 4000 rpm for 10 min. Supernatants were applied to reverse phase HPLC on a Waters Symmetry C18 column, equipped with a Waters Sentry Guard column. Isocratic HPLC runs were performed at RT at a flow rate of 1 ml/min in acetonitrile:water 48:52 as running solvent. Radioactivity was monitored in the eluate by a Scintillation Analyzer. Total radioactivity for estrone and estradiol were determined in each sample and percent conversion of estradiol to estrone was calculated according to the following formula:
as §1

[3] = tested on: HSD1 enzyme that is expressed in rabbit placenta tissue; test: Inhibition of E1 to E2 conversion in rabbit placenta tissue homogenate; details: inhibitor 100 nM, 30 nM estrone, 30 min
Experimental: The assay is based on an enzymatic reaction where HSD1 enzyme that is expressed in rabbit placenta tissue converts its natural substance estrone (E1) to estradiol (E2) in the presence of a co-factor β-NADPH.
Homogenization of rabbit placenta tissue: Weight a piece of the frozen tissue into a Precellys ck28 bead tube. Add buffer solution (20 mM KH2PO4 with 1 mM EDTA, pH 7,4) in 1:2 ratio (e.g. 300 mg of tissue:600 μl reaction buffer solution). Insert the bead tubes to homogenizer and homogenize 2×30 s. 6000 rpm. Centrifugated 5 min., 2600 rpm at +4° C. and collect supernatant. Aliquots of homogenate are stored in −80° C.
Assay—Inhibition of E1 to E2 conversion in rabbit placenta tissue: The reaction takes place in a buffer solution (20 mM KH2PO4 with 1 mM EDTA, pH 7,4), including appropriate amount of rabbit placenta homogenate, co-factor (1 mM β-NADPH), Substrate (30 nM estrone), labelled substrate as tracer (5 nM [^3H]-estrone). During a 30-minute incubation part of the estrone is converted to estradiol. The reaction is stopped by lowering the pH to 1 with 10% trichloro acetic acid (TCA). The substrate and conversion products are analyzed by HPLC and a Scintillation counter analyzer. Total radioactivity for estrone and estradiol were determined in each sample and percent conversion of estrone to estradiol was calculated according to the following formula:
Percent inhibition was calculated flowingly: % inhibition=100−% conversion.

In the case of `C[C@]12CCC3c4ccc(Cl)cc4CCC3C1[C@H](CCC(=O)Nc1cnccn1)C/C2=N\O` (stereo partly drawn) [Compound 74, 3-((13S,15R,E)-3-chloro-17-(hydroxyimino)-13-methyl-7,8,9,11,12,13,14,15,16,17-decahydro-6H-cyclopenta[a]phenanthren-15-yl)-N-(pyrazin-2-yl)propanamide], the inhibition at 0.1 µM [1] is reported as 27%, the inhibition at 1 µM [2] is reported as 2% and the “Rabbit placenta inhibition % @100 nM” value [3] is reported as 13%.

With `Cc1cccnc1NC(=O)CC[C@@H]1C/C(=N\O)[C@@]2(C)CCC3c4ccc(Cl)cc4CCC3C12` (stereo partly drawn) [Compound 60, 3-((13S,15R,E)-3-chloro-17-(hydroxyimino)-13-methyl-7,8,9,11,12,13,14,15,16,17-decahydro-6H-cyclopenta[a]phenanthren-15-yl)-N-(3-methylpyridin-2-yl)propanamide] the inhibition at 0.1 µM [1] was 38%, the inhibition at 1 µM [2] was 2% and the “Rabbit placenta inhibition % @100 nM” value [3] was 4%.

`Cc1cnc(NC(=O)CC[C@@H]2C/C(=N\O)[C@@]3(C)CCC4c5ccc(Cl)cc5CCC4C23)o1` (stereo partly drawn) [Compound 64, 3-((13S,15R,E)-3-chloro-17-(hydroxyimino)-13-methyl-7,8,9,11,12,13,14,15,16,17-decahydro-6H-cyclopenta[a]phenanthren-15-yl)-N-(5-methyloxazol-2-yl)propanamide] was tested, and the inhibition at 0.1 µM [1] was 26%, the inhibition at 1 µM [2] was 0% and the “Rabbit placenta inhibition % @100 nM” value [3] was 5%.

`CN(C)C(=O)CC[C@@H]1C/C(=N\O)[C@@]2(C)CCC3c4cccc(F)c4CCC3C12` (stereo partly drawn) [Compound 120, 3-((13S,15R,E)-4-fluoro-17-(hydroxyimino)-13-methyl-7,8,9,11,12,13,14,15,16,17-decahydro-6H-cyclopenta[a]phenanthren-15-yl)-N,N-dimethylpropanamide] was tested, and the inhibition at 0.1 µM [1] was 57%, the inhibition at 1 µM [2] was 2% and the “Rabbit placenta inhibition % @100 nM” value [3] was 9%.

In the case of `C[C@]12CCC3c4ccccc4CCC3C1[C@H](CCC(=O)Nc1ncccc1F)C/C2=N\O` (stereo partly drawn) [Compound 160, N-(3-fluoropyridin-2-yl)-3-((13S,15R,E)-17-(hydroxyimino)-13-methyl-7,8,9,11,12,13,14,15,16,17-decahydro-6H-cyclopenta[a]phenanthren-15-yl)propanamide], the inhibition at 0.1 µM [1] is reported as 66%, the inhibition at 1 µM [2] is reported as 5% and the “Rabbit placenta inhibition % @100 nM” value [3] is reported as 10%.

For `Cc1ccc(NC(=O)CC[C@@H]2C/C(=N\O)[C@@]3(C)CCC4c5cccc(F)c5CCC4C23)nn1` (stereo partly drawn) [Compound 16, 3-((13S,15R,E)-4-fluoro-17-(hydroxyimino)-13-methyl-7,8,9,11,12,13,14,15,16,17-decahydro-6H-cyclopenta[a]phenanthren-15-yl)-N-(6-methylpyridazin-3-yl) propanamide], the inhibition at 0.1 µM [1] was 79%, the inhibition at 1 µM [2] was 9% and the “Rabbit placenta inhibition % @100 nM” value [3] was 81%.

`C[C@]12CCC3c4cccc(F)c4CCC3C1[C@H](CCC(=O)Nc1nncs1)C/C2=N\O` (stereo partly drawn) [Compound 18, 3-((13S,15R,E)-4-fluoro-17-(hydroxyimino)-13-methyl-7,8,9,11,12,13,14,15,16,17-decahydro-6H-cyclopenta[a]phenanthren-15-yl)-N-(1,3,4-thiadiazol-2-yl)propanamide] was tested, and the inhibition at 0.1 µM [1] was 68%, the inhibition at 1 µM [2] was 14% and the “Rabbit placenta inhibition % @100 nM” value [3] was 62%.

In the case of `CN(C)C(=O)c1ccc(NC(=O)CC[C@@H]2C/C(=N\O)[C@@]3(C)CCC4c5ccc(Cl)cc5CCC4C23)nc1` (stereo partly drawn) [Compound 172, 6-(3-((13S,15R,E)-3-chloro-17-(hydroxyimino)-13-methyl-7,8,9,11,12,13,14,15,16,17-decahydro-6H-cyclopenta[a]phenanthren-15-yl)propanamido)-N,N-dimethylnicotinamide], the inhibition at 0.1 µM [1] is reported as 45%, the inhibition at 1 µM [2] is reported as 9% and the “Rabbit placenta inhibition % @100 nM” value [3] is reported as 9%.

`C[C@]12CCC3c4ccccc4CCC3C1[C@H](CCC(=O)Nc1ncccc1O)C/C2=N\O` (stereo partly drawn) [Compound 102, 3-((13S,15R,E)-17-(hydroxyimino)-13-methyl-7,8,9,11,12,13,14,15,16,17-decahydro-6H-cyclopenta[a]phenanthren-15-yl)-N-(3-hydroxypyridin-2-yl)propanamide] was tested, and the inhibition at 0.1 µM [1] was 57%, the inhibition at 1 µM [2] was 20% and the “Rabbit placenta inhibition % @100 nM” value [3] was 1%.

With `Cc1ccnc(NC(=O)CC[C@@H]2C/C(=N\O)[C@@]3(C)CCC4c5ccc(Cl)cc5CCC4C23)c1` (stereo partly drawn) [Compound 70, 3-((13S,15R,E)-3-chloro-17-(hydroxyimino)-13-methyl-7,8,9,11,12,13,14,15,16,17-decahydro-6H-cyclopenta[a]phenanthren-15-yl)-N-(4-methylpyridin-2-yl)propanamide] the inhibition at 0.1 µM [1] was 81%, the inhibition at 1 µM [2] was 4% and the “Rabbit placenta inhibition % @100 nM” value [3] was −7%.

In the case of `C[C@]12CCC3c4cccc(F)c4CCC3C1[C@H](CCC(=O)Nc1cnccn1)C/C2=N\O` (stereo partly drawn) [Compound 126, 3-((13S,15R,E)-4-fluoro-17-(hydroxyimino)-13-methyl-7,8,9,11,12,13,14,15,16,17-decahydro-6H-cyclopenta[a]phenanthren-15-yl)-N-(pyrazin-2-yl)propanamide], the inhibition at 0.1 µM [1] is reported as 53%, the inhibition at 1 µM [2] is reported as 3% and the “Rabbit placenta inhibition % @100 nM” value [3] is reported as 26%.

Source: patent US20240309043A1, “THERAPEUTICALLY ACTIVE STEROIDAL DERIVATIVES” (Organon R&D Finland Ltd., priority 2017, published 2024)
